# Assay results: patent US20090062375A1, “METHODS AND COMPOSITIONS FOR THE TREATMENT OF VIRAL DISEASES” (priority 2005, published 2009)
# Tests used:
# HUVEC monolayers = assay: HUVEC monolayer permeability assay (FITC-dextran, Transwell); format: cell-based, human; conditions: concentration not stated
# Protocol: FIG. 6. Supernatant of DEN-V2 infected-iDC increase endothelial cell permeability in a MMP dependent fashion. Eighty percent confluent HUVEC were prepared on 24-well transwell polyethylene. (A) Either cell culture supernatants of uninfected iDC, DV-infected iDC, or recombinant TNF-α (20 ng/ml) were pre-treated or not with 20 nM SB-3CT for 24 hours before HUVEC exposure for 12 hours, HUVEC monolayer permeability was measured by using the FITC-Dextran detected with spectrofluorometer at an excitation wavelength of 485 nm and emission at 530 nm. […] Data are representative of 3 or 4 independent experiments.
# FIG. 7. Supernatant of DEN-V2 infected-HUVEC increase endothelial cell permeability in a MMP-dependent fashion. IL-8 or TNF-α were used as controls. The induced permeability was inhibited as in experiment of FIG. 6 by SB-3CT.
# Immature dendritic cells were cultured for 24 hr in serum-free RPMI 1640 conditioned medium. And then infected with DV, cells and supernatant were collected at different periods. […]
# Permeability of HUVEC monolayers cultured on Transwell filters was assessed using FITC-labelled dextrans. […] The cells were removed and the absorbance of the FITC-dextran in the chamber was measured by spectrofluorometer (GENios-TECAN, Trappes, France) at an excitation wavelength of 485 nm and emission of 530 nm.
# [1] = tested on: MMP-9 secretion by DV-infected iDC; assay: Gelatin zymography of gelatinase (MMP-9) secretion by DV-infected iDC; format: cell-based, human; conditions: 10 μM SB203580 pretreatment, DV exposure 16 hr, zymography (FIG. 5C)
# Protocol: FIG. 5. Immature DC (A-C) or HUVEC (D-F) were infected or not with DV and cells were collected 30 min post infection. Cells lysate were separated on 12.5% SDS-PAGE under reducing conditions. Proteins were electrophoretically transferred onto nitrocellulose membrane. The membrane was probed with (A and E) antibodies to total and to specific phosphorylated forms of ERK1/ERK2 antibodies to total and (B, D) to specific phosphorylated forms of p38 kinase. Horseradish peroxidase-conjugated goat anti-rabbit IgG was used as secondary antibody. Immature DC (C) or HUVEC (F) were pretreated or not with 10 μM SB 203580 prior to exposure with DV for 16 hr at 37° C. Supernatants were collected, lyophilized and assayed by zymography. Data are representative of 3 independent experiments.
# Immature dendritic cells 5×10^5 cells/well were exposed to DV2-16681 for 2 hr, at MOI of 1 pfu/cell, in serum free RPMI 1640. Five extensive washes were done to eliminate free virus. […] Supernatants of DV infected iDC were collected and assessed for their viral activity. […]
# DV infected iDC (5×10^5 cells) were cultured and collected in several time periods. Gelatinase secretion of cell supernatants was determined by sodium dodecyl sulfate-polyacrylamide gel electrophoresis (SDS-PAGE) zymography by using a gelatin substrate, as previously described (Missé´et al., 2001). […]
structure (smiles),measurement,setting,value
"C[S+]([O-])c1ccc(-c2nc(-c3ccc(F)cc3)c(-c3ccncc3)[nH]2)cc1 (centres unmarked) [SB203580, 4-(4-Fluorophenyl)-2-(4-methylsulfinylphenyl)-5-(4-pyridyl)1H-imidazole]",permeability of HUVEC increased by dengue virus-infected iDC supernatants (summary statement),HUVEC monolayers,inhibited
same,increase in MMP-9 secretion by DV-infected iDC,[1],totally abolished
